Laboratory results from US20200288721A1, “PESTICIDAL COMPOSITION COMPRISING AN OXIME CARBAMATE AND USE THEREOF” (priority 2017, published 2020).

Experiment: Stability Test: storage of SL formulations in sealed bottles at 54° C. for 14 days
Assay type: physicochemical
Details: acid at 1% (Table 1) or 1-3% (Table 3) in 24% oxamyl SL
Method: Samples of the compositions summarised in Table 1 above were packaged in commercially available 500 ml fluorinated plastic bottles and the bottles sealed. The bottles were stored at 54° C. for 14 days. Thereafter, the bottles were cooled to room temperature and their appearance assessed. The concentration of the active ingredient, oxamyl, in each bottle was measured.
Samples of the compositions summarised in Table 3 above were packaged in commercially available 500 ml fluorinated plastic bottles and the bottles sealed. The bottles were stored at 54° C. for 14 days. Thereafter, the bottles were cooled to room temperature and their appearance assessed. The concentration of the active ingredient, oxamyl, in each bottle was measured.

SMILES	stabilisation / chemical degradation of the oxamyl active ingredient (in words)
O=P(O)(O)O [phosphoric acid]	significantly reduced the chemical degradation
O=C(O)CC(O)(CC(=O)O)C(=O)O [citric acid]	significantly reduced the chemical degradation
CC(=O)O [Acetic acid]	significantly reduced the chemical degradation
Cl [hydrochloric acid]	significantly reduced the chemical degradation
OB(O)O [boric acid]	not effective in stabilising the oxamyl active ingredient
